From ChEMBL document CHEMBL3875174, “Further investigation of Paprotrain: Towards the conception of selective and multi-targeted CNS kinase inhibitors” (Eur J Med Chem, 2016)

What was measured:
[1] = Cytotoxicity against human KB cells assessed as growth inhibition at 1 uM after 72 hrs by MTS assay; format: toxicity, cell-based; conditions: for inhibition at 72 h, 1 µM: KB cells, read-out: GI; for growth inhibition (GI): kb, 72 h, 1 µM
[2] = molecular target: Dual specificity tyrosine-phosphorylation-regulated kinase 1A (Homo sapiens, UniProt Q13627); experiment: Inhibition of GST-tagged human recombinant DYRK1A expressed in Escherichia coli using RS peptide as substrate incubated for 30 mins in presence of [gamma-33 P] ATP by liquid scintillation counting analysis
[3] = molecular target: Dual specificity protein kinase CLK1 (Homo sapiens, UniProt P49759); experiment: Inhibition of GST-tagged human recombinant CLK1 expressed in Escherichia coli using RS peptide as substrate incubated for 30 mins in presence of [gamma-33 P] ATP by liquid scintillation counting analysis
[4] = molecular target: Dual specificity tyrosine-phosphorylation-regulated kinase 1B (Homo sapiens, UniProt Q9Y463); experiment: Inhibition of GST-tagged human recombinant DYRK1B expressed in Escherichia coli using RS peptide as substrate incubated for 30 mins in presence of [gamma-33 P] ATP by liquid scintillation counting analysis
[5] = molecular target: Dual specificity protein kinase CLK4 (Homo sapiens, UniProt Q9HAZ1); experiment: Inhibition of GST-tagged human recombinant CLK4 expressed in Escherichia coli using RS peptide as substrate incubated for 30 mins in presence of [gamma-33 P] ATP by liquid scintillation counting analysis
[6] = molecular target: Dual specificity protein kinase CLK2 (Homo sapiens, UniProt P49760); experiment: Inhibition of GST-tagged human recombinant CLK2 expressed in Escherichia coli using RS peptide as substrate incubated for 30 mins in presence of [gamma-33 P] ATP by liquid scintillation counting analysis
[7] = Inhibition of porcine brain CK1 delta/epsilon using RRKHAAIGpSAYSITA as substrate incubated for 30 mins in presence of [gamma-33 P] ATP by liquid scintillation counting analysis; set-up: species or system Sus scrofa
[8] = molecular target: Cyclin-dependent kinase 5/CDK5 activator 1 (Homo sapiens, UniProt Q00535); format: protein-complex assay
[9] = molecular target: Glycogen synthase kinase-3 (Sus scrofa, UniProt B2LUN4+I6LNT8); experiment: Inhibition of porcine brain GSK3alpha/beta using GS-1 as substrate incubated for 30 mins in presence of [gamma-33 P] ATP by liquid scintillation counting analysis
[10] = molecular target: Dual specificity protein kinase CLK3 (Homo sapiens, UniProt P49761); experiment: Inhibition of GST-tagged human recombinant CLK3 expressed in Escherichia coli using RS peptide as substrate incubated for 30 mins in presence of [gamma-33 P] ATP by liquid scintillation counting analysis
Chain of Dual specificity protein kinase CLK3 (P49761 whole entry): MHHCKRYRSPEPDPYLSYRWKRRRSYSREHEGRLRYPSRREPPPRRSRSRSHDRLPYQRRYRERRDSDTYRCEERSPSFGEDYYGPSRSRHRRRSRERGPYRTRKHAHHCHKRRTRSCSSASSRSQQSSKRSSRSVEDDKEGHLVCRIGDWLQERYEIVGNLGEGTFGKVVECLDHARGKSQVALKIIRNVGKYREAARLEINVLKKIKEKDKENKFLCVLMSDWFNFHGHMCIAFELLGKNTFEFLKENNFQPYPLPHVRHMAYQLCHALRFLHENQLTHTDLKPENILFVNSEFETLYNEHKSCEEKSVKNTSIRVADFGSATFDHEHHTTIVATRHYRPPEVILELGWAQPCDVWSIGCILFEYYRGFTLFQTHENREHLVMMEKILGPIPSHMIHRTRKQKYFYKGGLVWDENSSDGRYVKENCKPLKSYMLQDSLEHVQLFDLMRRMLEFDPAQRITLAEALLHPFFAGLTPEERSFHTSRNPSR

Chain of Cyclin-dependent kinase 5/CDK5 activator 1 (Q00535 whole entry): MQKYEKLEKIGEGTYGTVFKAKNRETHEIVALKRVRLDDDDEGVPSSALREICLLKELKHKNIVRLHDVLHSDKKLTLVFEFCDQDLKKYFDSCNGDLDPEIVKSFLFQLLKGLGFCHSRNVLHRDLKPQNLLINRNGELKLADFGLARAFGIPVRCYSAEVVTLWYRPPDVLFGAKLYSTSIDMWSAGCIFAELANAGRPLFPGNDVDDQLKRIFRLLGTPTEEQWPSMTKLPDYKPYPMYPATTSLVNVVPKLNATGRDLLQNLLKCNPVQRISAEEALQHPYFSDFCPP
Chain of Cyclin-dependent kinase 5/CDK5 activator 1 (Q15078 whole entry, further chain): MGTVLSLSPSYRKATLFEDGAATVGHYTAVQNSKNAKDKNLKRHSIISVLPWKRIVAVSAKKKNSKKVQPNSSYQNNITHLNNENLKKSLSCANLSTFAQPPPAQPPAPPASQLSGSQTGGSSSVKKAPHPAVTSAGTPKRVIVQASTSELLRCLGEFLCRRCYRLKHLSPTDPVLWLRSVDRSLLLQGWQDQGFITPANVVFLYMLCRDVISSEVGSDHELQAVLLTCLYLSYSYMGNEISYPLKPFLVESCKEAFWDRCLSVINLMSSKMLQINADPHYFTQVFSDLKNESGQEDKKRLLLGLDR
Chain of Dual specificity tyrosine-phosphorylation-regulated kinase 1B (Q9Y463 whole entry): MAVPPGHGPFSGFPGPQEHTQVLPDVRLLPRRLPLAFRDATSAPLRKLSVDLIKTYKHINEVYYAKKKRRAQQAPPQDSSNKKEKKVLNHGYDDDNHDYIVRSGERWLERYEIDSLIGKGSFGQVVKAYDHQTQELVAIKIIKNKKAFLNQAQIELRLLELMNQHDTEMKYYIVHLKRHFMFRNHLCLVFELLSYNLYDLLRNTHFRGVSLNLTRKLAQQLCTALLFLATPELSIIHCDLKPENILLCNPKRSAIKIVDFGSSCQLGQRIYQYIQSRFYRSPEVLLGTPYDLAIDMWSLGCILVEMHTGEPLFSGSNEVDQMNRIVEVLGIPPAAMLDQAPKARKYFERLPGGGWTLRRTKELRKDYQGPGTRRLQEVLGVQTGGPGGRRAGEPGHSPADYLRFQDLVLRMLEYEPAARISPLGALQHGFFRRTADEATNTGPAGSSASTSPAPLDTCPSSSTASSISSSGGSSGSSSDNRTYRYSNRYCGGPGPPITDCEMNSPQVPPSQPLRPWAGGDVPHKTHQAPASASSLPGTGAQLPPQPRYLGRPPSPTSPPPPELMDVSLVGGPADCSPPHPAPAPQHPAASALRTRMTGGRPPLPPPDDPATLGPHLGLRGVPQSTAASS
Chain of Dual specificity protein kinase CLK2 (P49760 whole entry): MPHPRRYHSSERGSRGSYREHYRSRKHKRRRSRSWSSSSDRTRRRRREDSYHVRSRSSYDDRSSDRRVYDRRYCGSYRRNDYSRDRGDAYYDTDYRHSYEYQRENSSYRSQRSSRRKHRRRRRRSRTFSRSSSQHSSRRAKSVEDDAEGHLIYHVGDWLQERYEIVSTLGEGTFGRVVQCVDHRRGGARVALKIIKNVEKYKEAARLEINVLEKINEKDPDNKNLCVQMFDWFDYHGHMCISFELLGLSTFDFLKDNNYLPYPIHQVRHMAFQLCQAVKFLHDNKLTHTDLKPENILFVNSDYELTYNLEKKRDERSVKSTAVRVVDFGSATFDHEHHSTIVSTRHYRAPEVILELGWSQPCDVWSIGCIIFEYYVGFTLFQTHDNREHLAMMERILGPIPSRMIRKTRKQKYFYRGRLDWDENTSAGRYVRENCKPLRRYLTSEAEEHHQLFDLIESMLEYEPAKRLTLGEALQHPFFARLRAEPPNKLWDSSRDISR
Chain of Dual specificity protein kinase CLK1 (P49759 whole entry): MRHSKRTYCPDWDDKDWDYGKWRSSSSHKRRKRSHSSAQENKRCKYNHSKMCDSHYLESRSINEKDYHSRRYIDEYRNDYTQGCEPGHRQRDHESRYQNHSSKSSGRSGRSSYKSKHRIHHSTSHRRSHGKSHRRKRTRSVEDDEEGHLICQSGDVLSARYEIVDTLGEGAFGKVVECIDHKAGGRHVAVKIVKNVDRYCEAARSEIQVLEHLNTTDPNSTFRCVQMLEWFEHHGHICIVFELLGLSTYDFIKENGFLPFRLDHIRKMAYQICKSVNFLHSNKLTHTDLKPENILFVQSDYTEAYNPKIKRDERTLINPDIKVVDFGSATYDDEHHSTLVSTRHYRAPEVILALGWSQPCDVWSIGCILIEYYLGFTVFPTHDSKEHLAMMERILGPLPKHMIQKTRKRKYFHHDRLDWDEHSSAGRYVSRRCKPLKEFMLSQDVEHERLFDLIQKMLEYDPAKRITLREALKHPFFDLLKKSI
Chain of Dual specificity protein kinase CLK4 (Q9HAZ1 whole entry): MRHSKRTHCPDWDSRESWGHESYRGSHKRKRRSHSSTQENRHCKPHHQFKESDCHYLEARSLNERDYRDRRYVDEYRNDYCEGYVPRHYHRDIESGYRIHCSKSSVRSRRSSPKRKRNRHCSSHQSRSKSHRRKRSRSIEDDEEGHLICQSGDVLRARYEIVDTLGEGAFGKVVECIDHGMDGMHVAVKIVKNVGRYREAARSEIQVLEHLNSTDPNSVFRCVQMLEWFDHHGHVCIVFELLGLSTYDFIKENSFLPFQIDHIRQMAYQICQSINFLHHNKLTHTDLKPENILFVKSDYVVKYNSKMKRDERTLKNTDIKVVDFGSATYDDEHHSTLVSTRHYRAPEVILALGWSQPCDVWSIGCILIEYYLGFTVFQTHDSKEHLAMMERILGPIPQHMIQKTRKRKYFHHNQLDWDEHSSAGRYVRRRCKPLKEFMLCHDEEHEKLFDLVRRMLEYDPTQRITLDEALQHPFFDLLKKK

Structure (SMILES)	IC50 [2]	IC50 [3]	IC50 [4]	IC50 [5]	IC50 [6]	IC50 [7]	IC50 [8]	IC50 [9]	IC50 [10]	inhibition at 72 h, 1 µM [1]	growth inhibition (GI) [1]
N#C/C(=C\c1cccnc1)c1c[nH]c2ncccc12	0.021 µM	0.016 µM	0.24 µM	0.047 µM	4.6 µM	> 10 µM	0.13 µM	0.72 µM	> 10 µM	29%	–
COc1cccc2c1[nH]c1c3ccncc3cc(C#N)c21	0.027 µM	0.041 µM	0.028 µM	0.04 µM	0.044 µM	> 10 µM	0.46 µM	2 µM	0.18 µM	9%	–
N#Cc1cc2cnccc2c2[nH]c3ncccc3c12	0.44 µM	0.16 µM	0.16 µM	0.13 µM	0.4 µM	> 10 µM	0.78 µM	1.8 µM	6.8 µM	–	Non-Toxic
COc1cccc2c1[nH]c1c3ccncc3cc(C(N)=O)c21	0.6 µM	0.57 µM	0.46 µM	0.11 µM	3.5 µM	> 10 µM	9 µM	8.8 µM	6.1 µM	–	Non-Toxic
COc1ccc2c(/C(C#N)=C/c3cccnc3)c[nH]c2n1	0.18 µM	0.23 µM	0.1 µM	0.071 µM	2.3 µM	> 10 µM	> 10 µM	> 10 µM	> 10 µM	–	Non-Toxic
COc1ccc2[nH]cc(-c3cc4cnccc4cc3NC(C)=O)c2c1	0.85 µM	0.034 µM	0.59 µM	0.022 µM	1.1 µM	> 10 µM	8 µM	> 10 µM	7 µM	–	Non-Toxic

Further lines, with some results ahead:

IC50 [2]	IC50 [3]	IC50 [4]	IC50 [5]	IC50 [6]	IC50 [7]	IC50 [8]	IC50 [9]	IC50 [10]	Structure (SMILES)	inhibition at 72 h, 1 µM [1]	growth inhibition (GI) [1]
4.3 µM	0.047 µM	1.1 µM	0.021 µM	0.61 µM	> 10 µM	> 10 µM	> 10 µM	> 10 µM	COc1ccc2[nH]c3c(=O)[nH]c(-c4cccnc4)c(C#N)c3c2c1	–	Non-Toxic
0.97 µM	2.4 µM	0.9 µM	0.69 µM	2.8 µM	> 10 µM	6 µM	> 10 µM	8 µM	COc1ccc2c(c1)[nH]c1c3ccncc3cc(CNC(C)=O)c21	16%	–
0.018 µM	0.023 µM	0.042 µM	0.03 µM	0.15 µM	> 10 µM	6.4 µM	0.14 µM	0.32 µM	COc1ccc2c(c1)[nH]c1c3c(OC)cncc3cc(C#N)c21	38%	–
0.37 µM	0.17 µM	0.26 µM	0.18 µM	1.1 µM	> 10 µM	6 µM	2.4 µM	1.8 µM	N#Cc1cc2ccncc2c2[nH]c3ccccc3c12	3%	–
